Here are results for twelve compounds from ChEMBL document CHEMBL1145358, “2-Phenyl-2,3-dihydro-1H-imidazo[1,2-b]pyrazole derivatives: new potent inhibitors of fMLP-induced neutrophil chemotaxis” (Bioorg Med Chem Lett, 2007).

Molecules are shown by their SMILES.

For one test, the target named is T1, fMet-Leu-Phe receptor (Homo sapiens, UniProt P21462).
T1 sequence (P21462 whole entry): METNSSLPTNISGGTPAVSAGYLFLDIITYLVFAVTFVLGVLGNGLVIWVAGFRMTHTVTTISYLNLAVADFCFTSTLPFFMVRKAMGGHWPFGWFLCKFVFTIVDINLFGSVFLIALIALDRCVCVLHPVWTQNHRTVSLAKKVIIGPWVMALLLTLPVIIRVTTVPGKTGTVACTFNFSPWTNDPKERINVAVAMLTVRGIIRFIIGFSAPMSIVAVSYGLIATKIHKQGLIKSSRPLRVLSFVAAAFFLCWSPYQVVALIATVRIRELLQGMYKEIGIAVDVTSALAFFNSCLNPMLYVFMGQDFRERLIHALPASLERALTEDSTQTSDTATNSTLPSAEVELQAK
Kind of test: Displacement of [3H]-fMLP from FPR in human neutrophils. (In general: In a radioligand displacement assay an active substance lowers the binding of a labelled ligand.)

Test [1] can be described thus: Inhibition of fMLP-OMe-induced chemotaxis in human neutrophils. The class given is functional.

As usually defined, the Ki is a measure of affinity in units of concentration, obtained from inhibition or displacement. A higher Ki goes with lower affinity. One may read the IC50 as the concentration that gives 50% inhibition. Low values mean higher potency, high ones lower potency. As to `O=C(O)c1cnn2c1NC(c1ccccc1)C2` (centres undefined), the inhibition constant (Ki) on fMet-Leu-Phe receptor is greater than 10 µM. In test [1], this compound yielded an IC50 of 0.00116 µM.

In turn, `NC(=O)c1cnn2c1NC(c1ccccc1)C2` (centres undefined) registered a Ki on fMet-Leu-Phe receptor greater than 10 µM. Inhibition in test [1] was half-maximal at 0.00367 µM (IC50).

As for `CC(C)(C)NC(=O)c1cnn2c1NC(c1ccccc1)C2` (centres undefined), at fMet-Leu-Phe receptor, the Ki was greater than 10 µM. For the same compound, the half-maximal inhibitory concentration (IC50) in test [1] was 0.00752 µM.

Consider `O=C(NC1CC1)c1cnn2c1NC(c1ccccc1)C2` (centres undefined), for which the inhibition constant Ki on fMet-Leu-Phe receptor is greater than 10 µM. In test [1], inhibition was half-maximal at 0.00048 µM (IC50).

With `O=C(c1cnn2c1NC(c1ccccc1)C2)N1CCCCC1` (centres undefined), the inhibition constant Ki on fMet-Leu-Phe receptor is greater than 10 µM. In test [1], this compound came in with an IC50 of 0.00148 µM.

Consider `O=C(c1cnn2c1NC(c1ccccc1)C2)N1CCOCC1` (centres undefined), for which, at fMet-Leu-Phe receptor, the inhibition constant (Ki) is greater than 10 µM. The same compound had an IC50 in test [1] of 0.3 µM.

As for `c1ccc(C2Cn3nccc3N2)cc1` (centres undefined), the Ki at fMet-Leu-Phe receptor was greater than 10 µM. Further, the IC50 in test [1] worked out at 0.029 µM.

Regarding `O=C(c1cnn2c1NC(c1ccccc1)C2)N1CCCCCC1` (centres undefined), the inhibition constant Ki on fMet-Leu-Phe receptor is greater than 10 µM. For the same compound, the 50% inhibitory concentration (IC50) in test [1] came to 0.00101 µM.

Take `O=C(c1cnn2c1NC(c1ccccc1)C2)N1CCN(Cc2ccccc2)CC1` (centres undefined): the Ki on fMet-Leu-Phe receptor was greater than 10 µM. The compound also displayed an IC50 in test [1] of 0.027 µM.

On fMet-Leu-Phe receptor, `CCOC(=O)c1cnn2c1NC(c1ccccc1)C2` (centres undefined) registered an inhibition constant Ki greater than 10 µM. The same compound registered an IC50 in test [1] of 2.4 µM.

`O=C(NCc1ccccc1)c1cnn2c1NC(c1ccccc1)C2` (centres undefined) gave a Ki on fMet-Leu-Phe receptor greater than 10 µM. Moreover, half-maximal inhibition in test [1] (IC50) required 10 µM.

As for `O=C(c1cnn2c1NC(c1ccccc1)C2)N1CCCC1` (centres undefined), the Ki on fMet-Leu-Phe receptor is greater than 10 µM. Also, the IC50 in test [1] is 9 µM.
